Assay results published in patent publication US11523610B2, “Regulating plant growth using a diapocarotenoid” (King Abdullah University of Science and Technology, priority 2018, dated 2022).
“Also recorded” adds a separate entry of the source.

What was measured:
[1] = system: Arabidopsis root growth (Col-0 seedlings); assay: Primary root length of Arabidopsis seedlings on treated half MS agar plates; type: in vivo
Procedure: β-cyclocitral, β-ionone and D′orenone (β-Apo-13-caroteneone) (FIG. 1A) were purchased from Buchem (Netherlands). Diapo1, Diapo2, Diapo3, Diapo4, Diapo5, and Diapo6 (FIG. 1B) were synthesized by Buchem (Netherlands). Diapo3 was also synthesized together with D6-anchorene and anchorene derivatives according to the protocol of SCHEME 2. Apocarotenoids and diapocarotenoids were dissolved in acetone to make stock solutions (10 mM). For the screening experiments, each chemical was diluted in half strength Murashige and Skoog (MS) media (with 0.5% sucrose+1% agar, 0.5 g/L MES, pH 5.7) to reach indicated concentrations of 25 μM and 5 μM. A stock solution of 10 mM GR24 (Chiralix, Netherlands) was also made by diluting GR24 in acetone. Stock solutions of D15 (100 mM), Norflurazone (5 mM), and CPTA (50 mM) were made in dimethyl sulfoxide (DMSO). For experiments, these compounds were diluted in concentrations of 125 μM D15, 500 nM Norflurazone, or 100 μM CPTA, respectively. 1-Naphthaleneacetic acid (NAA) and N-1-Naphthylphthalamic Acid (NPA) were purchased from Sigma-Aldrich (Germany) and dissolved in water to make 1 mM stock solutions. For NAA and NPA treatments, media containing 0.1 μM NAA and 1 μM NPA were used. Unless otherwise noted, all commercially available compounds were used as provided without further purification.
Sterilized Col-0 and mutants seeds were kept at 4° C. in darkness for 3 days to stimulate seed germination, and then sown on half strength MSO plates (with 0.5% sucrose +1% agar, 0.5g/L MES, pH 5.7) supplemented with the indicated chemicals as described below or in the Figures. Plates were vertically grown in PERCIVAL® growth chambers under long day (16 h light/8 h dark, 22° C., 60% relative humidity, light density: 4000 LUX) LED white light [HYPERIKON® 16 W LED Light Bulb A21, 16 W (100 W Equivalent), CRI92, 1620 Lumens, 4000K (Daylight Glow)] conditions. Light fluorescence rates were measured using a digital LUX meter ([…]® 5025).
(§1) ANRs were counted in seedlings vertically grown on half strength MS (with 0.5% sucrose +1% agar, 0.5 g/L MES, pH 5.7) media 8 days post-stratification (dps) using a dissection microscope. To investigate ANR formation after root apical meristems (RAM) excision (ANR-RE), RAM of seedlings were excised using sterile scalpels at 5 dps and then grown for another 3 days prior to counting the number of emerged ANRs. RAM of seedlings were excised at 8 dps and then grown for another 3 days prior to counting the number of emerged LRs. For determining the effect of anchorene on lateral roots, the number of emerged lateral roots were counted using a dissection microscope at 8 dps. For primary root length measurements, seedlings were measured using the publicly available ImageJ software (downloaded from rsbweb.nih.gov/ij/) after taking digital photographs. For adventitious root assay, the number of emerged adventitious roots per plant were counted after 5 days of treatment on plates with or without anchorene.
Six previously identified or predicted diapocarotenoids with chain lengths ranging from C9 to C15 (Diapo1-6) (FIG. 1B) and 3 apocarotenoids (FIG. 1C) were selected to identify new carotenoid-derived signals involved in root development). These compounds were selected because they are available and stable at ambient conditions. Diapo1 (C9) is the expected product formed upon cleavage of all-trans-β-apo-10′ carotenal. Diapo2 (C10) results from cleaving the C7, C8 and C15, C15′ double bonds in different carotenoids and is produced by cyanobacterial retinal-forming enzymes from Cm-apocarotenoids. Diapo3 (C10) is a structural isomer of Diapo2 and a predicted cleavage product that can be formed by cutting the C11, C12 and C11′, C12′ bonds in almost all plant carotenoids (FIGS. 1A, 1B and 17). Diapo4 (C12) results from cleaving the C7, C8 and C13′, C14′ bonds in many carotenoids, and is formed by the CCD1 from apo-10′-lycopenal.

[2] = system: Arabidopsis seedlings (lateral roots); assay: Lateral root emergence and lateral root capacity; type: in vivo
From the text: as §1

[3] = system: pDR5rev::GFP seedlings; assay: Confocal microscopy of pDR5rev::GFP auxin marker line; type: in vivo, Arabidopsis
From the text: To examine pDR5Rev::GFP fluorescence at the collet region, live seedlings were directly used for laser scanning confocal microscopy (Zeiss LSM 510 microscope) examination.
(§2) For fluorescence intensity quantification of pDR5Rev::GFP and pPIN3::PIN3-GFP marker lines, ImageJ software (rsbweb.nih.gov/ij/) was used after taking confocal microscopy photos. All calculations are background subtracted.

[4] = system: PIN3; assay: PIN3-GFP fluorescence in ANR primordia (pPIN3::PIN3-GFP marker line); type: in vivo, Arabidopsis; details: 20 μM anchorene
Procedure: as §2
To determine if the effect of anchorene on ANR development is caused by changes in auxin distribution, the activity of anchorene in the presence of NPA was evaluated. […] Vertical grown 5 DAG seedlings on half MSO with indicated treatments were analyzed. The orientation of root growth was measured and then was assigned to one of twelve 30° sectors. […] The auxin efflux carrier PIN3 plays an important role in LR initiation and emergence. Therefore, the effect of anchorene on PIN3 using the pPIN3::PIN3-GFP marker line was examined.

[5] = system: dark grown Arabidopsis seedlings; assay: Adventitious root assay; type: in vivo; details: 5, 10, or 20 μM anchorene, 5 days
From the text: as §1
4-day-old dark grown Arabidopsis seedlings were transferred to plates with 5, 10, or 20 μM anchorene, or without. After 5 additional days of growth, the number of adventitious roots was determined for each seedling.

C\C(C=O)=C/C=C/C=C(\C)C=O [anchorene, 12,12′-diapocarotene-12,12′-dial]
inhibition of primary root growth ([1]; 25 μM, 7 dps): weak inhibition | inhibition of primary root length ([1]; 8 DAG Col-0 seedlings, different concentrations of anchorene (FIG. 3F)): minor inhibition; also recorded: weak inhibitory effect | lateral root emergence ([2]; 5 and 10 μM anchorene, 8 dps): no effect; also recorded: did not affect | LR capacity in untreated seedlings ([2]; LR No. after RAM excision, 20 μM anchorene): inhibits LR capacity | LR formation (LR capacity) after D15 treatment ([2]; LR No. after RAM excision, 20 μM anchorene and 100 μl D15): no significant effect | LR length ([2]; anchorene application (FIGS. 3E-F)): did not affect | GFP signal in ANR primordia, combined NF/anchorene treatment ([3]; 1 μM NF plus 20 μM anchorene): clearly enhanced | GFP signal at the collet / ANR primordia ([3]; single compound, 20 μM anchorene, 1 μM NF): strong GFP signal | PIN3 levels (PIN3-GFP fluorescent intensity in ANR primordia) [4]: significantly increased | number of adventitious roots [5]: significantly increases
